pIC50: −log10 of the molar value.
What was measured:
[1] = target: T1, human sputum elastase (HSE) (Homo sapiens, UniProt P08246); experiment: Protease inhibition assay (in vitro), human sputum elastase; format: biochemical; settings: substrate methoxysuccinyl-(Ala)2-Pro-Val-p-nitroanilide, 30 min, room temperature, pH 7.5
T1 construct: HSE was obtained from Elastin Products Company Inc., Mo., U.S.A; purchased Elastin Products Company Inc; host or cells: human sputum (from the enzyme's name)
T1 sequence (P08246 30-267): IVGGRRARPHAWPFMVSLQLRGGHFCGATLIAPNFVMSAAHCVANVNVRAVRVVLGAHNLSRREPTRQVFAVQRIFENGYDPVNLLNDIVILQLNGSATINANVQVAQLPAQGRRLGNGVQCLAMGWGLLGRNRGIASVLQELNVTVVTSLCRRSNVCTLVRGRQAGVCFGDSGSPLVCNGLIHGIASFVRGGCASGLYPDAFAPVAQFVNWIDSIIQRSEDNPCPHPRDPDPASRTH
Procedure: (§1) A buffer used throughout the assay was 0.1M HEPES (4-(2-hydroxyethyl)-1-piperazineethanesulfonic acid) containing 0.5M NaCl, pH 7.5. Twenty-five microliters of 2 mM methoxysuccinyl-(Ala)2 -Pro-Val-p-nitroanilide (100 mM of dimethyl sulfoxide solution were diluted in the buffer) and 50 μl of sample (10 μl of sample in organic solvent was diluted 5-fold in the buffer) were mixed in wells of 96 well-microliter plate. An absorbance of the mixture in wavelength at 415 nm was measured by a microplate reader (Corona Electric Co., Ibaraki, Japan). After the measurement, 25 μl of 6 μg/ml human sputum elastase (HSE) was added and the mixture was allowed to stand for 30 minutes at room temperature. Then, the absorbance at 415 nm was measured. Percent inhibition by drug was determined by 100×(1-"r" inhibitor present/"r" inhibitor absent), where "r" is absorbance after 30 minutes incubation minus absorbance before enzyme addition. Effect of inhibitors against porcine pancreas elastase (Type IV, 5 μg/ml final) was assayed similarly using N-succinyl-(Ala)3 -p-nitroanilide. HSE was obtained from Elastin Products Company Inc., Mo., U.S.A. All other substrates and protease were purchased from Sigma Chemicals Co.

[2] = system: PPE-induced emphysema in golden Syrian hamsters; experiment: Experimentally (porcine pancreatic elastase) induced emphysema in hamsters; format: in vivo, hamster; settings: for Cst (quasi static lung compliance) / VC (vital capacity): 3 weeks after PPE
Procedure: Male golden Syrian hamsters, weighing approximately 120 g, were obtained from Japan SLC Inc,.
Porcine pancreatic elastase (PPE) was purchased from Elastin Products Company, Inc,. Dialferin was purchased from Japan Roche Inc,.
Hamsters were anesthetized intraperitoneally with Pentobarbital. The compound of Example 19 was dissolved in saline. Both prior art compounds A and B were suspended in 0.5% methyl cellulose. The drugs were instilled intratracheally through the oral cavity, 5 minutes before 100 μg/site of PPE in 0.2 ml of saline instillation. Three weeks after PPE instillation, the hamsters were anesthetized with Pentobarbital. Respiratory mechanics were studied in supine hamsters using a whole body, constant-volume, variable pressure plethysmograph to measue volume. A water-filled esophageal catheter was used to estimate pleural pressure. Quasi-static deflation pressure-volume (P-V) curves were obtained by intraperitoneally administered Dialferin to suppress spontaneous breathing inflating the lungs to a transpulmonary pressure (PL) of 30 cm H2 O, permitting slow deflation to a PL of 0 cm H2 O and gently aspirating to a PL of -20 cm H2 O . Quasi-static lung compliance (Cst) was defined as the slope of the steep portion of the deflation P-V curve in the mid-volume range. Vital capacity was defined as the difference in lung volume between TLC25 (volume at PL=25 cm H2 O) and RV-20 (volume at PL=-20 cm H2 O).

[3] = system: human sputum elastase-induced lung hemorrhage in hamsters; experiment: Elastase-induced pulmonary damage (lung hemorrhage) in hamsters; format: in vivo, hamster; settings: 5 min predose; for Hemorrhage (OD541 nm): BAL hemoglobin 3 h after elastase
Procedure: Hamsters under pentobarbital anesthesia were used. Saline or saline-containing human sputum elastase was instilled intratracheally via a small incision in the ventral neck region using 1-ml syringe with a 27-gauge needle. After 3 hours, animals were sacrificed by CO2 asphyxiation, each animal's trachea was reexposed. The lungs were then laveged using a 2.5-ml aliquot of saline and then withdrawing the saline, yielding a final volume of approximately 1.5 ml bronchoalveolar lavage (BAC) fluid from each animal.
The cells of BAL fluid were collected by centrifugation and were then diluted with distilled water to disrupt, and the hemoglobin contents determined spectrophotometrically at 541 nm.
Test drugs were dissolved in saline or methyl cellulose, and instilled intratracheally in the same manner as used to instill elastase, at 5 minutes before instillation of elastase.

[4] = target: T2, porcine pancreas elastase (Type IV) (Sus scrofa, UniProt P00772); experiment: Protease inhibition assay (in vitro), porcine pancreas elastase; format: biochemical; settings: IC50 Porcine pancreas elastase, substrate N-succinyl-(Ala)3-p-nitroanilide, enzyme 5 μg/ml final
T2 construct: purchased Sigma Chemicals Co; host or cells: porcine pancreas (from the enzyme's name)
Procedure: as §1

[5] = system: human sputum elastase induced paw edema in C57BL mice; experiment: Human sputum elastase induced paw edema in mice; format: in vivo, mouse; settings: for Thickness of footpad: 15 min before HSE 20 μg/site, 2 h after HSE
Procedure: Male C57BL mice at the age of 7-8 weeks were obtained from Japan Clear Inc,.
Human sputum elastase (HSE) was purchased from Elastin Products Company, Inc,. The test drug was administered subcutaneously, and 15 minutes later, HSE was injected into the right hind footpad at the dosage of 20 μg/site, and saline into the left hind footpad as the control. After 2 hours of HSE injection, the paw edema was measured with the dial thickness gage, and the difference of the thickness between right and left hind footpads was calculated.

[6] = 1 μg/site intratracheal 5 min before PPE 100 μg/site
[7] = 10 μg/site intratracheal 5 min before PPE 100 μg/site
[8] = 100 μg/site intratracheal 5 min before PPE 100 μg/site

T2 sequence (P00772 27-266): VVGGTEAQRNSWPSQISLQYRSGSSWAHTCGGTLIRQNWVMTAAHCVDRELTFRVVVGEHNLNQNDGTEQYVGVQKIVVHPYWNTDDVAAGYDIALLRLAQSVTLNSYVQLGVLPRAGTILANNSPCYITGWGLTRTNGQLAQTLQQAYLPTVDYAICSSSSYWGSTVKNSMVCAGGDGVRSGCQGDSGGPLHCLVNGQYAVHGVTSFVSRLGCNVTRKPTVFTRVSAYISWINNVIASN

CC(C)C(NC(=O)[C@@H]1CCCN1C(=O)[C@@H](NC(=O)c1ccc(C(=O)NCC(=O)O)cc1)C(C)C)C(=O)C(F)(F)F (mixture of isomers) [Example 19, 3(RS)-[[4-(carboxymethylaminocarbonyl)phenylcarbonyl]-L-valyl-L-prolyl]amino-1,1,1-trifluoro-4-methyl-2-oxopentane] was tested. Which pIC50 [1] did it give?
The pIC50 was 6.17.

And the “Cst (%) Inhibition” value ([2]; 1 μg/site intratracheal)?
The value was 15%.

What about the “VC (%) Inhibition” value ([2]; 1 μg/site intratracheal) of the same compound?
The value was 12%.

What about the “Cst (quasi static lung compliance)” value [2, 6] of the same compound?
Its value is 1.39 ± 0.05 ml/cmH2 O.

What about the “VC (vital capacity)” value [2, 6] of the same compound?
The value was 7.0 ± 0.1 mL.

What about the “Cst (%) Inhibition” value ([2]; 10 μg/site intratracheal) of the same compound?
The value was 84%.

What about the “VC (%) Inhibition” value ([2]; 10 μg/site intratracheal) of the same compound?
Its value is 65%.

What about the “Cst (quasi static lung compliance)” value [2, 7] of the same compound?
The value was 0.70 ± 0.04 ml/cmH2 O.

And the “VC (vital capacity)” value [2, 7]?
Its value is 5.8 ± 0.1 mL.

What about the “Cst (%) Inhibition” value ([2]; 100 μg/site intratracheal) of the same compound?
Its value is 100%.

And the “VC (%) Inhibition” value ([2]; 100 μg/site intratracheal)?
Its value is 97%.

And the “Cst (quasi static lung compliance)” value [2, 8]?
Its value is 0.53 ± 0.02 ml/cmH2 O.

And the “VC (vital capacity)” value [2, 8]?
Its value is 5.0 ± 0.1 mL.

And the “Potency compared with prior art compounds, considering Cst and VC values (in words)” value ([2]; hamster, in vivo)?
The value was “superior to the prior art compounds A and B”.

What about the “Effect of pretreatment on PPE-induced increases in lung mechanics (in words)” value ([2]; intratracheal pretreatment, 1-100 μg/site) of the same compound?
The value was “prevented the development of PPE-induced increases in lung mechanics in a dose dependent manner”.

And the “% inhibition of elastase-induced lung hemorrhage” value ([3]; 1 μg/site intratracheal)?
The value was 10.8%.

What about the “Hemorrhage (OD541 nm)” value ([3]; 1 μg/site intratracheal) of the same compound?
Its value is 11.59 ± 1.40 OD541 nm.

And the “% inhibition of elastase-induced lung hemorrhage” value ([3]; 10 μg/site intratracheal)?
The value was 93.1%.

What about the “Hemorrhage (OD541 nm)” value ([3]; 10 μg/site intratracheal) of the same compound?
Its value is 1.663 ± 0.690 OD541 nm.

And the “% inhibition of elastase-induced lung hemorrhage” value ([3]; 100 μg/site intratracheal)?
Its value is 105.2%.

What about the “Hemorrhage (OD541 nm)” value ([3]; 100 μg/site intratracheal) of the same compound?
Its value is 0.2141 ± 0.020 OD541 nm.

What about the “ED50 elastase-induced lung hemorrhage” value ([3]; intratracheal) of the same compound?
Its value is 2.4 μg/site.

And the pIC50 [4]?
Its pIC50 is 5.52.

What about the “% Inhibition of paw edema” value ([5]; 1 mg/kg subcutaneous) of the same compound?
The value was 6.4%.

What about the Thickness of footpad ([5]; 1 mg/kg subcutaneous) of the same compound?
The Thickness of footpad was 43.8 ± 5.67 × 10^-2 mm.

What about the “% Inhibition of paw edema” value ([5]; 10 mg/kg subcutaneous) of the same compound?
The value was 20.9%.

And the Thickness of footpad ([5]; 10 mg/kg subcutaneous)?
The Thickness of footpad was 37.0 ± 13.41 × 10^-2 mm.

And the “% Inhibition of paw edema” value ([5]; 100 mg/kg subcutaneous)?
The value was 42.3%.

And the Thickness of footpad ([5]; 100 mg/kg subcutaneous)?
Its Thickness of footpad is 27.0 ± 4.66 × 10^-2 mm.

Source: patent US5296591A, “Trifluoromethylketone derivatives, processes for preparation thereof and use thereof” (Fujisawa Pharmaceutical Co., Ltd., priority 1990, dated 1994)
